{
  "source": "patent US20250311759A1",
  "about": "“ORGANIC COMPOUNDS” (GIVAUDAN SA, priority 2022, published 2025)",
  "type_in_all_cases": "in vivo",
  "key": {"[1]": {"system": "sensory panel", "test": "Salt enhancement in aqueous NaCl solution, sensory panel", "conditions": "for taste description versus 0.5% NaCl solution: 50 ppm in 0.5% NaCl", "text": "Two aqueous solutions have been prepared: • A) 0.3% NaCl, and • B) 0.3% NaCl and 100 ppm of 1H-imidazole.\nThe solutions were tasted by a sensory panel. Solution A was described as “salty”.\nTwo aqueous solutions have been prepared: • A) 0.5% NaCl, and • B) 0.5% NaCl and 50 of ppm of 4-methyl-1H-imidazole.\nThe solutions were tasted by a sensory panel. Solution A was described as “salty”. Solution B was described as more salty in comparison to solution A.\nTwo aqueous solutions have been prepared: • A) 0.5% NaCl, and • B) 0.5% NaCl and 50 ppm of (2E)-3-(1H-imidazol-4-yl)prop-2-enoic acid (urocanic acid).\nThe following aqueous solutions have been prepared: • A) 0.3% NaCl, • B) 0.3% NaCl and 90 ppm of 2-(1H-imidazol-4-yl)acetic acid, and • C) 0.3% NaCl and 80 ppm of benzimidazole. • The solutions were tasted by a sensory panel. Solution A was described as “salty”."}, "[2]": {"system": "sensory panel", "test": "Effect on corn curls with cheese flavor, sensory panel", "text": "Corn curls with cheese flavor with and without addition of 1H-imidazole have been compared by a sensory panel.\nCorn curls with cheese flavor with addition of 2-(1H-imidazol-4-yl)acetic acid or benzimidazole and without have been compared by a sensory panel."}, "[3]": {"system": "sensory panel", "test": "Effect on model broth base, sensory panel", "text": "A model broth base, comprising 0.3% of NaCl was compared with a sample further comprising 100 ppm of 1H-imidazole.\n(§1) The solutions were tasted by a sensory panel.\nA model broth base, comprising 0.3% of NaCl was compared with a sample further comprising 70 ppm of 2-(1H-imidazol-4-yl)acetic acid, and 100 ppm of benzimidazole, respectively.\nThe solutions were tasted by a sensory panel. […] The solution comprising benzimidazole was preferred."}, "[4]": {"system": "sensory panel", "test": "Bitter masking in aqueous KCl solution, sensory panel", "text": "Two aqueous solutions have been prepared: • A) 0.3% KCl, and • B) 0.3% KCl and 70 ppm of 1H-imidazole.\nas §1\nThe following aqueous solutions have been prepared: • A) 0.3% KCl, and • B) 0.3% KCl and 100 ppm of 2-(1H-imidazol-4-yl)acetic acid, and • C) 0.3% KCl and 100 ppm of benzimidazole."}, "[5]": {"system": "sensory panel", "test": "Effect on commercially available ketchup, sensory panel", "text": "Samples of commercially available ketchup with and without addition of 2-(1H-imidazol-4-yl)acetic acid or benzimidazole have been compared by a sensory panel."}, "[6]": {"system": "sensory panel", "test": "Effect on commercially available mayonnaise, sensory panel", "conditions": "70 ppm in mayonnaise", "text": "Samples of commercially available mayonnaise with and without addition of 1H-imidazole have been compared by a sensory panel.\nSamples of commercially available mayonnaise with addition of 2-(1H-imidazol-4-yl)acetic acid or benzimidazole and without have been compared by a sensory panel."}, "[7]": {"system": "sensory panel", "test": "Effect on commercially available cheese sauce, sensory panel", "text": "The effect of 1H-imidazole on a commercially available cheese sauce was explored.\nTherefore, a cheese sauce has been compared by a sensory panel with a sample of the sauce further comprising 70 ppm of 1H-imidazole.\nThe effect of 2-(1H-imidazol-4-yl)acetic acid on a commercially available cheese sauce was explored. Therefore, a cheese sauce has been compared by a sensory panel with a sample of the sauce further comprising 50 ppm of 2-(1H-imidazol-4-yl)acetic acid."}, "[8]": {"system": "sensory panel", "test": "Umami enhancement in savoury model solution (NaCl, MSG, Ribotides), sensory panel", "conditions": "100 ppm in 0.5% NaCl, 0.03% MSG, 0.007% Ribotides", "text": "Two aqueous solutions have been prepared: • A) 0.5% NaCl, 0.03% MSG, 0.007% Ribotides, and • B) 0.5% NaCl, 0.03% MSG, 0.007% Ribotides and 100 ppm of 1H-imidazole.\nThe solutions were tasted by a sensory panel. Solution A is a model solution for savoury taste, containing MSG (monosodium glutamate) and Ribotides (IMP/GMP, 50/50 mixture) as savoury taste enhancer."}, "[9]": {"system": "sensory panel", "test": "Effect on soy based vegan burger, sensory panel", "conditions": "70 ppm in soy based vegan burger; initial peak and last phase of salt perception", "text": "Soy based vegan burgers with and without 1H-imidazole have been tasted by a sensory panel."}, "[10]": {"system": "sensory panel", "test": "Effect on potato chips, sensory panel", "conditions": "70 ppm, potato chips with 1.5% salt", "text": "Potato chips with 1.5% salt have been tasted by a sensory panel with and without 1H-imidazole."}, "[11]": {"conditions": "150 ppm on corn curls with cheese flavor"}, "[12]": {"conditions": "100 ppm in model broth base comprising 0.3% NaCl"}},
  "data": [
    {"smiles": "Cc1c[nH]cn1", "note": "[4-methyl-1H-imidazole]", "values": [
      {"measurement": "taste description versus 0.5% NaCl solution", "setting": "[1]", "value": "more salty"}
    ]},
    {"smiles": "c1ccc2[nH]cnc2c1", "note": "[benzimidazole]", "values": [
      {"measurement": "taste description versus 0.3% NaCl solution", "setting": "[1]; 80 ppm in 0.3% NaCl", "value": "clearly more salty with a sour fresh background"},
      {"measurement": "taste description versus corn curls without compound", "setting": "[2]; [11]", "value": "saltier, and the rich profile was enhanced"},
      {"measurement": "panel preference in broth", "setting": "[3]; 100 ppm benzimidazole versus 70 ppm 2-(1H-imidazol-4-yl)acetic acid in model broth base", "value": "preferred"},
      {"measurement": "taste description versus model broth base", "setting": "[3]; [12]", "value": "more mineral and salty"},
      {"measurement": "taste description versus 0.3% KCl solution", "setting": "[4]; 100 ppm in 0.3% KCl", "value": "less bitter, less metallic and more salty"},
      {"measurement": "taste description versus pure ketchup", "setting": "[5]; 70 ppm in ketchup", "value": "clearly more salty"},
      {"measurement": "taste description versus pure mayonnaise", "setting": "[6]", "value": "clearly more salty with a less sour impression"}
    ]},
    {"smiles": "O=C(O)/C=C/c1c[nH]cn1", "note": "[urocanic acid, (2E)-3-(1H-imidazol-4-yl)prop-2-enoic acid]", "values": [
      {"measurement": "taste description versus 0.5% NaCl solution", "setting": "[1]", "value": "more salty"}
    ]},
    {"smiles": "O=C(O)Cc1c[nH]cn1", "note": "[2-(1H-imidazol-4-yl)acetic acid]", "values": [
      {"measurement": "taste description versus 0.3% NaCl solution", "setting": "[1]; 90 ppm in 0.3% NaCl", "value": "clearly more salty with a minearlic note"},
      {"measurement": "taste description versus cheese sauce", "setting": "[7]; 50 ppm in cheese sauce", "value": "preferred, having more saltiness and umami character"},
      {"measurement": "taste description versus corn curls without compound", "setting": "[2]; [11]", "value": "saltier, and the rich profile was enhanced"},
      {"measurement": "taste description versus model broth base", "setting": "[3]; 70 ppm in model broth base comprising 0.3% NaCl", "value": "more mineral and salty"},
      {"measurement": "panel preference / KCl masker rating", "setting": "[4]; 100 ppm in 0.3% KCl", "value": "preferred over solution C"},
      {"measurement": "taste description versus 0.3% KCl solution", "setting": "[4]; 100 ppm in 0.3% KCl", "value": "less bitter, less metallic and more salty"},
      {"measurement": "taste description versus pure ketchup", "setting": "[5]; 100 ppm in ketchup", "value": "clearly more salty, sour lingering and less sweet"},
      {"measurement": "taste description versus pure mayonnaise", "setting": "[6]", "value": "clearly more salty with a less sour impression"}
    ]},
    {"smiles": "c1c[nH]cn1", "note": "[1H-imidazole]", "values": [
      {"measurement": "taste description versus 0.3% NaCl solution", "setting": "[1]; 100 ppm in 0.3% NaCl", "value": "clearly more salty with a mineralic note, low acidity, some astringency and freshness"},
      {"measurement": "taste description versus cheese sauce", "setting": "[7]; 70 ppm in cheese sauce", "value": "more mineral and salty"},
      {"measurement": "taste description versus savoury model solution", "setting": "[8]", "value": "strong boost of saltiness and umami"},
      {"measurement": "taste description versus corn curls without compound", "setting": "[2]; 100 ppm on corn curls with cheese flavor", "value": "saltier, and the rich profile was enhanced"},
      {"measurement": "taste description versus burger without compound", "setting": "[9]", "value": "more salty"},
      {"measurement": "taste description versus model broth base", "setting": "[3]; [12]", "value": "more mineral and salty as well as more umami"},
      {"measurement": "taste description versus 0.3% KCl solution", "setting": "[4]; 70 ppm in 0.3% KCl", "value": "less metallic and more salty"},
      {"measurement": "taste description versus potato chips without compound", "setting": "[10]", "value": "higher salty impact and a lingering effect"},
      {"measurement": "taste description versus pure mayonnaise", "setting": "[6]", "value": "clearly more salty and had a stronger acetic acid character"}
    ]}
  ]
}
